Measured values taken from patent publication US20140135221A1, “Desiccant and Defoliant Composition for Crops” (NIHON NOHYAKU CO., LTD, priority 2011, published 2014).

System: seed potatoes (variety: danshaku)
Test: Desiccation and defoliation effect on potted potato plants in greenhouse (Test Example 1)
Type: in vivo
Settings: potato foliage; for desiccation and defoliation effect, 4 DAT: 4 days after treatment; for desiccation and defoliation effect, 7 DAT: 7 days after treatment; for desiccation and defoliation effect, 10 DAT: 10 days after treatment; for desiccation and defoliation effect, 16 DAT: 16 days after treatment
Description: In 5100-ml plastic pots filled up with soil (clay loam), seed potatoes (variety: danshaku) were planted and cultivated in a greenhouse. When the foliage was fully developed, specifically, at 30 days after flowering, the test plants were treated with the predetermined effective dosage (expressed as the amounts of active ingredients in g/ha) of the composition of the present invention in a liquid form, and further cultivated in the greenhouse. In the period from 4 days to 16 days after the treatment, the desiccation effect was surveyed and the herbicidal effect was evaluated according to the criterion described below.
Regarding the criterion for evaluating the desiccation and defoliation effect, the extent of desiccation and defoliation was graded from 0% (no effect) to 100% (completely desiccated).

Row | SMILES | desiccation and defoliation effect, 4 DAT (dosage 32 g.a.i./ha) [%] | desiccation and defoliation effect, 7 DAT (dosage 32 g.a.i./ha) [%] | desiccation and defoliation effect, 10 DAT (dosage 32 g.a.i./ha) [%] | desiccation and defoliation effect, 16 DAT (dosage 32 g.a.i./ha) [%] | desiccation and defoliation effect, 4 DAT (dosage 64 g.a.i./ha) [%] | desiccation and defoliation effect, 7 DAT (dosage 64 g.a.i./ha) [%] | desiccation and defoliation effect, 10 DAT (dosage 64 g.a.i./ha) [%] | desiccation and defoliation effect, 16 DAT (dosage 64 g.a.i./ha) [%] | desiccation and defoliation effect, 4 DAT (dosage 10 g.a.i./ha) [%] | desiccation and defoliation effect, 7 DAT (dosage 10 g.a.i./ha) [%] | desiccation and defoliation effect, 10 DAT (dosage 10 g.a.i./ha) [%] | desiccation and defoliation effect, 16 DAT (dosage 10 g.a.i./ha) [%] | desiccation and defoliation effect, 4 DAT (dosage 20 g.a.i./ha) [%] | desiccation and defoliation effect, 7 DAT (dosage 20 g.a.i./ha) [%] | desiccation and defoliation effect, 10 DAT (dosage 20 g.a.i./ha) [%] | desiccation and defoliation effect, 16 DAT (dosage 20 g.a.i./ha) [%]
1 | Cc1nn(-c2cc(CC(Cl)C(=O)O)c(Cl)cc2F)c(=O)n1C(F)F (stereo not shown) [Carfentrazone] | 18 | 22 | 33 | 40 | 45 | 52 | 58 | 70 | – | – | – | – | – | – | – | –
2 | CCOC(=O)COc1cc(-c2nn(C)c(OC(F)F)c2Cl)c(F)cc1Cl [Pyraflufen-ethyl] | – | – | – | – | – | – | – | – | 38 | 42 | 45 | 58 | 48 | 50 | 55 | 68
